In patent US11597703B2, “Caspase inhibitors and methods of use thereof” (Histogen Inc., priority 2019, dated 2023):
pIC50: −log10 of the molar value.

Key:
[1] = target: T1, Caspase-1 (Homo sapiens, UniProt P29466); test: Caspase-1 enzyme inhibition assay (Ac-YVAD-pNA substrate), IC50; format: biochemical
T1 construct: purchased Enzo Biosciences
T1 sequence (P29466 120-297 limits assumed): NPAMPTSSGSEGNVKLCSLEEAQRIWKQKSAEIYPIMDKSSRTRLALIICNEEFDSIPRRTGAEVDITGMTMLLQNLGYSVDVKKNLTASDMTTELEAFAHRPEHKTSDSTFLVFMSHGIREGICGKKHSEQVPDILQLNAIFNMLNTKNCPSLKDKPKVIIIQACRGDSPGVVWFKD
T1 sequence (P29466 317-404 limits assumed): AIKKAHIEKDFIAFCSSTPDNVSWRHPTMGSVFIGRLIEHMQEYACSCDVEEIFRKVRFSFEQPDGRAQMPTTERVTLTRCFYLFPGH
Protocol: (§1) Human caspases were purchased from Enzo Biosciences and used according to the manufacturer's instructions. An exemplary caspase assay, for Caspase-1, is provided below:
Caspase-1 was diluted to 10 U/μl in assay buffer consisting of 50 mM HEPES, pH 7.4, 100 mM NaCl, 0.1% CHAPS, 1 mM EDTA, 10% glycerol and 10 mM DTT.
45 μl of assay buffer was added into ½ volume microtiter plate. The plate was allowed to equilibrate to assay temperature. 5 μl of Caspase-1 (10 U/μl) was added to each appropriate well. Two 2 blank wells containing assay buffer alone without Caspase-1 were included on the plate.
The reaction was started by the addition of 50 μl Ac-YVAD-pNA substrate, for a final substrate concentration of 200 μM. The reaction was continuously monitored at 405 nm. The data was graphed as OD405 nm vs time, and the slope was determined over the linear portion of the curve. The rates in OD/min were converted to substrate/min using an extinction coefficient for p-nitroaniline of 10,500M-1 cm-1, and were adjusted for pathlength of sample. […]

[2] = target: T2, Caspase-3 (Homo sapiens, UniProt P42574); test: Caspase-3 enzymatic inhibition assay, IC50; format: biochemical; conditions: read-out: Caspase 3 enzyme inhibition IC50
T2 construct: purchased Enzo Biosciences
T2 sequence (P42574 29-175 limits assumed): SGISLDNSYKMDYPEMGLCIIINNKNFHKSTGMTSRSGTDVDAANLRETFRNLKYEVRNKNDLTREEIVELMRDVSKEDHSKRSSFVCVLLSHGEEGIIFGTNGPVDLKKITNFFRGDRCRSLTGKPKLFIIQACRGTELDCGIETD
T2 sequence (P42574 176-277 limits assumed): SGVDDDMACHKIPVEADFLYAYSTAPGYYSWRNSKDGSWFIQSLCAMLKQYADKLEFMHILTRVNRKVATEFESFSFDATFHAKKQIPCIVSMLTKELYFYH
Protocol: as §1
(§2) Enzymatic assays were conducted for Caspase-3, 6 and 7 activity according to the manufacture's instructions.

[3] = target: T3, Caspase 6 (Homo sapiens, UniProt P55212); test: Caspase 6 enzymatic inhibition assay, IC50; format: biochemical; conditions: read-out: Caspase 6 enzyme inhibition IC50
T3 construct: purchased Enzo Biosciences
T3 sequence (P55212 24-179 limits assumed): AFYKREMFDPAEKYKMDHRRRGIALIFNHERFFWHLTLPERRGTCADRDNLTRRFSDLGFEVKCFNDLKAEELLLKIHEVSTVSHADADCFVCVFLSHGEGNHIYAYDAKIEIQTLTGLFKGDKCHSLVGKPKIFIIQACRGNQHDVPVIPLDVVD
T3 sequence (P55212 194-293 limits assumed): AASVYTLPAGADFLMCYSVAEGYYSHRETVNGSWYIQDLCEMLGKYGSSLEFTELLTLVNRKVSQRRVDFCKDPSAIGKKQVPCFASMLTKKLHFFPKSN
Protocol: as §1, §2

[4] = target: T4, Caspase 7 (Homo sapiens, UniProt P55210); test: Caspase 7 enzymatic inhibition assay, IC50; format: biochemical; conditions: read-out: Caspase 7 enzyme inhibition IC50
T4 construct: purchased Enzo Biosciences
T4 sequence (P55210 24-198 limits assumed): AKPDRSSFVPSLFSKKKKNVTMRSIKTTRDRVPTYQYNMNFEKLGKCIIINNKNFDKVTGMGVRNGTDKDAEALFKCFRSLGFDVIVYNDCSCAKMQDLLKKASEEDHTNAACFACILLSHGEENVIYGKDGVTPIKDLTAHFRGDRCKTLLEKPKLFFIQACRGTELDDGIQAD
T4 sequence (P55210 207-303 limits assumed): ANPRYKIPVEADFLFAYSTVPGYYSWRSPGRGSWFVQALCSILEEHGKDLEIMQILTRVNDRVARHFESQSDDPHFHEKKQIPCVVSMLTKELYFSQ
Protocol: as §1, §2

[5] = tested on: IL-1β; test: Inhibition of LPS-stimulated IL-1β in THP-1 cells (ELISA); format: cell-based, human; conditions: 10 micromolar; for inhibition at 10 µM: Homo sapiens, read-out: Percent Inhibition of IL1-β
Protocol: Compounds in the present invention were tested in THP-1 cells, a human monocyte cell line, to assess the inhibition of the inflammatory cytokine IL-1β. THP-1 cells (ATCC TIB-202) were grown in culture and seeded in 96 well plates at a concentration of 200,000 cells per well with a total volume of 150 μL. Plated cells were incubated overnight at 37 degrees C. under an atmosphere of 5% CO2. Media was removed from cells which were washed with PBS. Test compounds were diluted in DMSO stock solution and serially diluted appropriately for initial screening and IC50 determinations. LPS in serum free media (140 μL of […]) was added to each well to stimulate IL-1β production. IL-1β was measured by ELISA assay kit (R&D Systems) per the manufacturers instructions.
IC50 values for the inhibition of IL-1 in THP 1 cells were determined from dose response studies.

[6] = tested on: Jurkat cells; test: Prevention of Fas-induced apoptosis in Jurkat cells (WST-8); format: cell-based; conditions: Homo sapiens, 10 micromolar, read-out: % Prevention of Fas - induced Jurkat cell apoptosis at 10 micromolar
Protocol: Compounds of the present invention were evaluated in Jurkat cells, a human T-lymphocyte cell line, to evaluate compounds ability to inhibit apoptotic cell death. Jurkat cells, Clone E6-1 (ATCC TIB-152) were grown in culture maintain a cell density between 0.5-2 million cells/mL. Cells were tested for viability and countion with typan blue stain before use. Test compounds were addedd to 96 well plates and Jurkat cells were added at a concentration of approximately 100,000 cells per well and mixed thoroughly by action of pipetting. Plated cells were incubated for 1 hour at 37 degrees C. under an atmosphere of 5% CO2. Anti-Fas antibody was added and mixed by pipet action. Plates were incubated for 20 hours at 37 degrees C. under an atmosphere of 5% CO2. 10 microliters of thawed WST-8 solution was added to each well and incubated for 4 hours. Absorbance was measured at 450 nm and control reading at […] using a SpectraMax ID5 plate reader. Apoptotic cell death is executed by caspases 3, 7 and 6. Compounds that lack activity against these caspases will not prevent the death of Jurkat cells and is a functional test of selectivity for inflammatory over apoptotic caspases.
IC50 values to protect against Fas induced apoptosis and improve survival of Jurkat cells were determined from dose response studies.

SMILES | pIC50 [1] | pIC50 [2] | pIC50 [3] | pIC50 [4] | inhibition at 10 µM [5] [%] | inhibition at 10 µM [6] [%] | Percent Inhibition of IL1-β [5]
C[C@H](NC(=O)C(=O)Nc1c(F)cccc1F)C(=O)N[C@@H](CCOCc1ccccc1)C(=O)COc1c(F)c(F)cc(F)c1F [Example 1, N^1-((S)-1-(((S)-5-(Benzyloxy)-2-oxo-1-(2,3,5,6-tetrafluorophenoxy)pentan-3-yl)amino)-1-oxopropan-2-yl)-N^2-(2,6-difluorophenyl)oxalamide] | 7.00 to 8.00 | ≤ 6.00 | ≤ 6.00 | ≤ 6.00 | 50 to 90 | ≤ 10 | 
C[C@H](NC(=O)C(=O)Nc1c(F)cccc1F)C(=O)N[C@@H](CCO)C(=O)COc1c(F)c(F)cc(F)c1F [Example 2, N^1-(2,6-Difluorophenyl)-N^2—((S)-1-(((S)-5-hydroxy-2-oxo-1-(2,3,5,6-tetrafluorophenoxy)pentan-3-yl)amino)-1-oxopropan-2-yl)oxalamide] | 7.00 to 8.00 | ≤ 6.00 | ≤ 6.00 | ≤ 6.00 | 50 to 90 | ≤ 10 | 
C[C@H](NC(=O)C(=O)Nc1c(F)cccc1F)C(=O)N[C@@H](CCOCc1ccc(Cl)cc1)C(=O)COc1c(F)c(F)cc(F)c1F [Example 3, N^1—((S)-1-(((S)-5-((4-Chlorobenzyl)oxy)-2-oxo-1-(2,3,5,6-tetrafluorophenoxy)pentan-3-yl)amino)-1-oxopropan-2-yl)-N^2-(2,6-difluorophenyl)oxalamide] | 6.00 to 7.00 | ≤ 6.00 | ≤ 6.00 | ≤ 6.00 | 25 to 50 | ≤ 10 | 
C[C@H](NC(=O)C(=O)Nc1c(F)cccc1F)C(=O)N[C@@H](CCOCc1ccsc1)C(=O)COc1c(F)c(F)cc(F)c1F [Example 4, N^1-(2,6-difluorophenyl)-N^2—((S)-1-oxo-1-(((S)-2-oxo-1-(2,3,5,6-tetrafluorophenoxy)-5-(thiophen-3-ylmethoxy)pentan-3-yl)amino)propan-2-yl)oxalamide] | 7.00 to 8.00 | ≤ 6.00 | ≤ 6.00 | ≤ 6.00 | 50 to 90 | ≤ 10 | 
COCC[C@H](NC(=O)[C@H](C)NC(=O)C(=O)Nc1c(F)cccc1F)C(=O)COc1c(F)c(F)cc(F)c1F [Example 5, N^1-(2,6-Difluorophenyl)-N^2—((S)-1-(((S)-5-methoxy-2-oxo-1-(2,3,5,6-tetrafluorophenoxy)pentan-3-yl)amino)-1-oxopropan-2-yl)oxalamide] | 6.00 to 7.00 | ≤ 6.00 | ≤ 6.00 | ≤ 6.00 | 25 to 50 | ≤ 10 | 
C[C@H](NC(=O)C(=O)Nc1c(F)cccc1F)C(=O)N[C@@H](CCOC(=O)Oc1ccccc1)C(=O)COc1c(F)c(F)cc(F)c1F [Example 7, (S)-3-((S)-2-(2-((2,6-Difluorophenyl)amino)-2-oxoacetamido)propanamido)-4-oxo-5-(2,3,5,6-tetrafluorophenoxy)pentyl phenyl carbonate] | 7.00 to 8.00 | ≤ 6.00 | ≤ 6.00 | ≤ 6.00 | 50 to 90 | ≤ 10 | 
C[C@H](NC(=O)C(=O)Nc1c(F)cccc1F)C(=O)N[C@@H](CCOC(=O)c1ccccc1)C(=O)COc1c(F)c(F)cc(F)c1F [Example 8, (S)-3-((S)-2-(2-((2,6-Difluorophenyl)amino)-2-oxoacetamido)propanamido)-4-oxo-5-(2,3,5,6-tetrafluorophenoxy)pentyl benzoate] | 6.00 to 7.00 | ≤ 6.00 | ≤ 6.00 | ≤ 6.00 | 25 to 50 | ≤ 10 | 
O=C(O)CC[C@H](NC(=O)CNC(=O)C(=O)Nc1c(F)cccc1F)C(=O)COc1c(F)c(F)cc(F)c1F [Example 9, (S)-4-(2-(2-((2,6-difluorophenyl)amino)-2-oxoacetamido)acetamido)-5-oxo-6-(2,3,5,6-tetrafluorophenoxy)hexanoic acid] | ≥ 8.00 | ≤ 6.00 | ≤ 6.00 | ≤ 6.00 | > 90 | ≤ 10 | 
C[C@H](NC(=O)C(=O)Nc1c(F)cccc1F)C(=O)N[C@@H](CCC(=O)O)C(=O)COc1cc(C(F)(F)F)cc(C(F)(F)F)c1 [Example 10, (S)-6-(3,5-bis(trifluoromethyl)phenoxy)-4-((S)-2-(2-((2,6-difluorophenyl)amino)-2-oxoacetamido)propanamido)-5-oxohexanoic acid] | ≥ 8.00 | ≤ 6.00 | ≤ 6.00 | ≤ 6.00 | > 90 | ≤ 10 | 
C[C@H](NC(=O)C(=O)Nc1ccccc1C(C)(C)C)C(=O)N[C@@H](CCC(=O)O)C(=O)COc1c(F)c(F)cc(F)c1F [Example 11, (S)-4-((S)-2-(2-((2-(tert-Butyl)phenyl)amino)-2-oxoacetamido)propanamido)-5-oxo-6-(2,3,5,6-tetrafluorophenoxy)hexanoic acid] | ≥ 8.00 | ≤ 6.00 | ≤ 6.00 | 6.00 to 7.00 | > 90 | ≤ 10 | 
C[C@H](NC(=O)C(=O)Nc1ncccn1)C(=O)N[C@@H](CCC(=O)O)C(=O)COc1c(F)c(F)cc(F)c1F [Example 42, (S)-5-oxo-4-((S)-2-(2-oxo-2-(pyrimidin-2-ylamino)acetamido)propanamido)-6-(2,3,5,6-tetrafluorophenoxy)hexanoic acid] | ≥ 8.00 | ≤ 6.00 | ≤ 6.00 | ≤ 6.00 |  |  | 
C[C@H](NC(=O)C(=O)Nc1c(F)cccc1F)C(=O)N[C@@H](CC(=O)O)C(=O)COc1c(F)c(F)cc(F)c1F [IDN-7314, reference compound] |  |  |  |  |  |  | A (A > 90%)
